In patent publication US20240238300A1, “TREATMENT METHODS FOR SUBJECTS WITH CANCER HAVING AN ABERRATION IN EGFR AND/OR HER2” (TAIHO PHARMACEUTICAL CO., LTD., priority 2021, published 2024):

Tests used:
[1] = test system: T1, P-gp; experiment: substrate susceptibility on human P-gp, bidirectional transcellular transport, P-gp/LLC-PK1 cells; format: in vitro ADME; conditions: human, LLC-PK1, with zosuquidar 10 μmol/L, read-out: net flux ratio
T1 construct: expressed in transfected cells; host or cells: LLC-PK1 (porcine kidney) cells expressing human P-gp; mock/LLC-PK1 as control
Description: (§1) Substrate susceptibility of Compound (1) on human P-gp. Time-dependence of the bidirectional transcellular transport of 1 μmol/L and 10 μmol/L Compound (1) across human P-gp/Lilly Laboratories Cell-Porcine Kidney 1 (LLC-PK1) cells and mock/LLC-PK1 cells was analyzed. Net flux ratios of some samples incubated with 1 μmol/L Compound (1) for 2 or 3 hours was not calculable as concentrations of these samples were below the lower limit of quantification. […] The net flux ratios of samples incubated with 10 μmol/L Compound (1) for 2, 3, and 4 hours were 1.4±0.4 1.7±0.3, and 1.5±0.2, respectively. The net flux ratios samples incubated with 10 μmol/L Compound (1) with 10 μmol/L zosuquidar for 2, 3, and 4 hours were 1.2±0.3, 1.2±0.1, and 1.1±0.1, respectively.

[2] = molecular target: T2, human P-gp (Homo sapiens, UniProt P08183); experiment: as above; format: in vitro ADME
T2 construct: expressed in transfected cells; host or cells: LLC-PK1 (porcine kidney) cells expressing human P-gp; mock/LLC-PK1 as control
T2 sequence (P08183 whole entry): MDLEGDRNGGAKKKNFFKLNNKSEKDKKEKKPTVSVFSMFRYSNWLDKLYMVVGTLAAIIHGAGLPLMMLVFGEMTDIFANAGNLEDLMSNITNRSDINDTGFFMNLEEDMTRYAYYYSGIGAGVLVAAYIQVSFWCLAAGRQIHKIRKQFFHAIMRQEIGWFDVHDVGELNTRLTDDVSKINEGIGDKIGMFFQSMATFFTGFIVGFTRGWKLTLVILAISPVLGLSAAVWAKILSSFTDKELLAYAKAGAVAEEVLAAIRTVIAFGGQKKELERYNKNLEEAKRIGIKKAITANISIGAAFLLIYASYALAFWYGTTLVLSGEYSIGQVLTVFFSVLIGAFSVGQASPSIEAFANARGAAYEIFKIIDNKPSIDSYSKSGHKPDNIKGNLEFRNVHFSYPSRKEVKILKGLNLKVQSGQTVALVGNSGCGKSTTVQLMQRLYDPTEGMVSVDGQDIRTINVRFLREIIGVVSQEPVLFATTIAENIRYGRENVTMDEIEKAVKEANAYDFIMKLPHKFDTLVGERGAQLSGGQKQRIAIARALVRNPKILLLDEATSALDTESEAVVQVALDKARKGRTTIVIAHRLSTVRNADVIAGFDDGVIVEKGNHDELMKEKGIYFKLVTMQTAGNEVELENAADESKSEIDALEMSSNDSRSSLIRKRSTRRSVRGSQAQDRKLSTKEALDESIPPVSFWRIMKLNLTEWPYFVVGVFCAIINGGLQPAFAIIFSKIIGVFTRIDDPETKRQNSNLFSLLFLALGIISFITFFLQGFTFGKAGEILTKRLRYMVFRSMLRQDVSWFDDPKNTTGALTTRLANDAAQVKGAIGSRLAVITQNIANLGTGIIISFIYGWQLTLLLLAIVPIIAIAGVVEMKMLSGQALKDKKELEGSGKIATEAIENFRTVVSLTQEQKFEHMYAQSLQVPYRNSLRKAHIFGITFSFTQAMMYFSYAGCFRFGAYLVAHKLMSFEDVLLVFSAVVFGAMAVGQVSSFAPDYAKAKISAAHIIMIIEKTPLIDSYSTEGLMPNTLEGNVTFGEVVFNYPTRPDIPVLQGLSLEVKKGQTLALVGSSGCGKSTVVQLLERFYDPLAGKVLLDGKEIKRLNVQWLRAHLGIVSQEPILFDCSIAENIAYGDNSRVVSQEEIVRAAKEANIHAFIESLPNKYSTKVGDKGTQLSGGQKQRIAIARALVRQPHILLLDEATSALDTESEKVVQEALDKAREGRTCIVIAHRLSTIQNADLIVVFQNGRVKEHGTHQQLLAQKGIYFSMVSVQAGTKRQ
Description: as §1

C=CC(=O)N1C[C@H](n2c(C#CC3CC3)c(C(=O)N[C@H](C)c3ccccc3)c3c(N)ncnc32)C[C@@H]1C [Compound (1), 7-((3R,5S)-1-acryloyl-5-methylpyrrolidin-3-yl)-4-amino-6-(cyclopropylethynyl)-N—((R)-1-phenylethyl)-7H-pyrrolo[2,3-d]pyrimidine-5-carboxamide]
efflux ratio at 4 h, 1 μmol/L ([1]; 1 μmol/L Compound (1), 4 hours, with 10 μmol/L zosuquidar): 1.5 ± 0.6
efflux ratio at 2 h, 10 μmol/L ([1]; 10 μmol/L Compound (1) with 10 μmol/L zosuquidar, 2 hours): 1.2 ± 0.3
efflux ratio at 4 h, 10 μmol/L ([1]; 10 μmol/L Compound (1) with 10 μmol/L zosuquidar, 4 hours): 1.1 ± 0.1
net flux ratio ([2]; 1 μmol/L Compound (1), 4 hours, without zosuquidar): 4.7±0.7
net flux ratio ([2]; 10 μmol/L Compound (1) with 10 μmol/L zosuquidar, 3 hours): 1.2±0.1
net flux ratio ([2]; 10 μmol/L Compound (1), 2 hours): 1.4±0.4
net flux ratio ([2]; 10 μmol/L Compound (1), 3 hours): 1.7±0.3
net flux ratio ([2]; 10 μmol/L Compound (1), 4 hours): 1.5±0.2
substrate susceptibility on human P-gp ([2]; transport saturable by increase of concentration): substrate of P-gp
